Earlier results, collected in patent US20110105443A1, “SALTS OF MEMANTINE AND COX-INHIBITORS AND THEIR CRYSTAL FORM IN THE TREATMENT OF PAIN” (LABORATORIES DEL DR. ESTEVE, S.A., priority 2008, published 2011).

Settings: stated property of the free drug (base or acid), no method given

In the case of `CC(=O)Oc1cc(C(F)(F)F)ccc1C(=O)O` [Triflusal, 2-acetoxy-4-trifluoromethyl-benzoic acid], the pKa is given as 3.34.
